According to patent US20230416684A1, “COMPOSITION FOR PREVENTING OR TREATING MUSCLE DISEASES, CONTAINING STEM CELLS IN WHICH GRO-ALPHA IS EXPRESSED OR GRO-ALPHA” (SAMSUNG LIFE PUBLIC WELFARE FOUNDATION, priority 2020, published 2023):

What was measured:
C2C12 cells [1] = experiment: Cell morphology and cell viability of lovastatin death-induced C2C12 cells treated with GSK′872 and GRO-α individually or in combination; assay type: cell-based, mouse; conditions: GRO-α 200 μg/mL; for cell proliferation (cell morphology) / cell viability: GSK 3 μm pretreatment 3 hours; for cell proliferation (cell morphology): cultured for 48, FIG. 5A; for cell viability: cultured for 48, FIG. 5B
Description: Inhibitory effects of GSK′827 and GRO-α, known as […] that block the RIP-3 pathway, on cell death of skeletal muscle myoblasts were compared. In detail, skeletal muscle myoblasts of the cell death-induced mouse by lovastatin treatment were pretreated with 3 μm of GSK′827 for 3 hours, followed by washing with 1×PBS. The medium was replaced by a serum-free medium, and GRO-α was diluted therein to a final concentration of […]/mL. Then, the cells were treated with GRO-α and GSK′827 individually or in combination, followed by culturing for 48 to observe the cell morphology.

phospho-MLKL = experiment: Western blot of phospho-MLKL in muscles of MDX mouse injected with WJ-MSCs or GRO-α; assay type: in vivo; conditions: muscles of MDX mouse after injection; protein level, FIG. 6B
Description: (§1) Based on the results of Examples 1 to 3, the efficacy of GRO-α on prevention or treatment of muscle diseases was confirmed in an MDX mouse (a mouse model for duchenne muscular dystrophy). In detail, the MDX mouse was intravenously and intraperitoneally injected with each of WJ-MSC and GRO-α. After one week, blood was collected from the heart of the mouse, centrifuged at 15,500×g for 10 minutes to separate serum, and then, activity of creatine kinase was measured.
(§2) The expression levels of necrosis markers in muscles of the […] injected with WJ-MSCs and GRO-α were confirmed in Example 4-1. In detail, the muscle tissue of the mouse was ground with liquid nitrogen into a minimum size in a mortar, added to an E-tube, and then subjected to sonication with lysis buffer (urea+RIPA=1:1). Afterwards, the supernatant was collected, and proteins in the tissue were quantified according to the Bradford assay (Bio-rad, USA). Then, proteins were detected by using western blot.

[2] = test system: necrosis markers in C2C12 cells; experiment: Western blotting of necrosis markers in lovastatin death-induced C2C12 cells treated with GRO-α at different concentrations; assay type: cell-based, mouse; conditions: FIGS. 4C and 4D
Description: To confirm the inhibitory effects of the PL-MSCs and WJ-MSCs on the cell death, apoptosis markers and necrosis markers expressed in the mouse skeletal muscle myoblasts were confirmed by western blotting. In detail, after collecting the cells and breaking the cell membrane by using a buffer in which RIPA buffer and urea buffer were mixed at a ratio of 1:1, centrifugation was performed thereon, and the supernatant thus obtained was collected and subjected to the Bradford assay (Bio-rad, USA) to quantify proteins in the cells. After loading 20 μg of the proteins of from each sample on a gel, electrophoresis was performed on the gel by using SDS. After transferring the proteins to a polyvinylidene fluoride (PVDF) membrane, a 1× tris-buffered saline with 0.1% Tween 20 (TBST) solution to which 5% skimmed milk (BD Difco, USA) was added, followed by culturing at room temperature for 1 hour. Afterwards, the proteins were treated with PARP (1:1000, Cell signaling, USA), cleaved caspase-3 (1:1000, Cell signaling, USA), phospho-RIP3 (1:1000, Cell signaling, USA), and phospho-MLKL (1:1000, Cell signaling, USA) and beta actin (1:5000; Santa Cruz, USA) antibodies, followed by culturing overnight at 4° C. Next, the proteins were treated with secondary antibodies (anti-Rabbbit IgG-HRP; ABCIon, Korea) at room temperature for 1 hour, and blots were developed by using ECL (Bio-rad, USA). […]

C2C12 cells [3] = experiment: Cell morphology and cell viability of lovastatin death-induced C2C12 cells treated with GRO-α at different concentrations; assay type: cell-based, mouse
phospho-RIP3 = experiment: Western blot of phospho-RIP3 in muscles of MDX mouse injected with WJ-MSCs or GRO-α; assay type: in vivo; conditions: muscles of MDX mouse after injection; protein level, FIG. 6C
Description: as §1, §2

[4] = test system: necrosis markers in C2C12 cells; experiment: Western blotting of necrosis markers in lovastatin death-induced C2C12 cells treated with GSK′872 and GRO-α individually or in combination; assay type: cell-based, mouse; conditions: FIGS. 5C and 5D
[5] = test system: MDX mouse (a mouse model for duchenne muscular dystrophy); experiment: Activity of creatine kinase in serum of MDX mouse injected with WJ-MSC or GRO-α; assay type: in vivo; conditions: intravenous and intraperitoneal injection, serum after one week, FIG. 6A
Description: as §1

Compound | cell proliferation (cell morphology) (C2C12 cells [1]) | cell viability (C2C12 cells [1]) | expression of phospho-MLKL, decrease (phospho-MLKL) | expression of necrosis markers [2] | cell viability, among concentration groups (C2C12 cells [3]; group treated with 100 ng/mL of GRO-α, FIG. 4B) | cell proliferation rate (C2C12 cells [3]; lovastatin death-induced C2C12 cells treated with GRO-α, FIG. 4A) | cell viability (C2C12 cells [3]; lovastatin death-induced C2C12 cells, after 24 hours of treatment with GRO-α, FIG. 4B) | cell viability compared to the group treated with GSK′872 (C2C12 cells [1]; FIG. 5B) | expression of phospho-RIP3, decrease (phospho-RIP3) | inhibitory effect on the expression of necrosis markers compared to GSK′872 [4] | expression of markers involved in necrosis compared to the control group ([4]; GRO-α 200 μg/mL) | activity of creatine kinase, decrease [5]
CC(C)S(=O)(=O)c1ccc2nccc(Nc3ccc4scnc4c3)c2c1 [GSK′872, reference compound] | proliferated | significant increase |  |  |  |  |  |  |  |  |  | 
growth-regulated oncogene-alpha (GRO-α) | proliferated | significant increase | 76% | inhibited the expression of the necrosis markers in a concentration-dependent manner | the highest | increased | significantly increased | high | 70% | excellent inhibitory effect | reduced the expression of all markers involved in necrosis | 75%
